According to US20240140947A1, “COMPOUND FOR THE TREATMENT OF CANCER” (priority 2022, published 2024):
Where two headings read alike, the source gives them in different places.

How the values were obtained:
[1] = system: phosphorylation of Rb protein at serines 807/811 in MCF7 cells; experiment: Phospho-Serine 807/811 Rb ELISA in MCF7 cells; assay type: cell-based; details: Homo sapiens, read-out: IC50 ± SEM, modulation of pRB Serine 807/811
Experimental: (§1) Cellular CDK activity of Compound 1 and PF-06873600 were assessed in human CCNE1-amplified ovarian cancer cell line model OVCAR3 and human ER+ breast cancer cell line model MCF7 cells. […] OVCAR3 cells were treated overnight with 1 mM hydroxyurea to enrich for G1/S phase cells prior to treatment with inhibitors. Functional effects were measured in a 7-day anti-proliferation assay in one human ovarian cancer (OVCAR3), two human ER+ breast cancer (MCF7 and T47D) and three human non-small cell lung cancer (NCIH2087, NCIH358 and A549) cell line models.
(§2) OVCAR3 or MCF7 cells were seeded at 25,000 cells/well in 100 μL growth media and allowed to adhere at 37° C. with 5% CO2 overnight. OVCAR3 cells were treated overnight with 1 mM hydroxyurea to enrich for G1/S phase cells prior to treatment with inhibitors. The following day, compounds were serially diluted from a 10 mM top dose for an 11-point 3-fold dilution curve in DMSO. Compound 1 and PF-06873600 were intermediately diluted 1:200 into growth media prior to diluting 1:5 on cells for final concentration 10 μM to 0.1 nM in 0.1% DMSO on cells. […] Plates were read in luminescence mode and IC50 values calculated.
(§3) The cellular activity of Compound 1 was evaluated in ER+, HER2− MCF7 cells and CCNE1-amplified ovarian carcinoma. Activity was determined by inhibition of phosphorylation of […]

[2] = system: phosphorylation of Rb protein at serines 807/811 in OVCAR3 cells; experiment: Phospho-Serine 807/811 Rb ELISA in OVCAR3 cells; assay type: cell-based; details: Homo sapiens, read-out: IC50 ± SEM, modulation of pRB Serine 807/811
Experimental: as §1, §2, §3

[3] = system: MCF7 parental; experiment: Cell proliferation assay (CYQUANT, 7 days), MCF7 parental; assay type: cell-based; details: Homo sapiens, read-out: IC50 ± SEM, proliferation inhibition
Experimental: as §1
(§4) OVCAR3, MCF7, T47D, HCC1428, NCIH2087, NCIH358 or A549cells were seeded 1-3000 cells/well in 96-well plates in growth media containing 10% FBS and cultured overnight at 37° C. 5% CO2. The following day, compounds were serially diluted from a 10 mM top dose for an 11-point 3-fold dilution curve in DMSO. […] CYQUANT Direct Cell Proliferation Assay (Molecular Probes, Eugene, OR) was then performed following manufacturer recommendations to determine the relative viable cell numbers on the Perkin Elmer Envision 2104 Multi Label Reader at 508 nm excitation and 527 nm emission wavelengths. IC50 values were calculated by concentration-response curve fitting utilizing a four-parameter analytical method using GraphPad Prism software.

[4] = system: T47D PalboR; experiment: Cell proliferation assay (CYQUANT, 7 days), T47D PalboR; assay type: cell-based; details: Homo sapiens, 168 h, read-out: IC50 ± SEM, proliferation inhibition
Experimental: as §1
as §4, with “CO2.” for “CO2. The following day, compounds were serially diluted from a 10 mM top dose for an 11-point 3-fold dilution curve in DMSO.”
(§5) The effect of Compound 1 on cell proliferation was assessed in multiple ER+ breast cancer cell lines, including parental and palbociclib resistant cell lines.

[5] = system: HCC1428 parental; experiment: Cell proliferation assay (CYQUANT, 7 days), HCC1428 parental; assay type: cell-based; details: Homo sapiens, read-out: IC50 ± SEM, proliferation inhibition
Experimental: OVCAR3, MCF7, T47D, HCC1428, NCIH2087, NCIH358 or A549cells were seeded 1-3000 cells/well in 96-well plates in growth media containing 10% FBS and cultured overnight at 37° C. 5% CO2. The following day, compounds were serially diluted from a 10 mM top dose for an 11-point 3-fold dilution curve in DMSO. Compound 1 and PF-06873600 were intermediately diluted 1:200 into growth media prior to diluting 1:5 on cells for final concentration 10 μM to 0.1 nM in 0.1% DMSO on cells. Cells were incubated at 37° C. 5% CO2 for 7 days. CYQUANT Direct Cell Proliferation Assay (Molecular Probes, Eugene, OR) was then performed following manufacturer recommendations to determine the relative viable cell numbers on the Perkin Elmer Envision 2104 Multi Label Reader at 508 nm excitation and 527 nm emission wavelengths. IC50 values were calculated by concentration-response curve fitting utilizing a four-parameter analytical method using GraphPad Prism software.
as §5

[6] = system: OVCAR3; experiment: Cell proliferation assay (CYQUANT, 7 days), OVCAR3; assay type: cell-based; details: Homo sapiens, OVCAR-3, 168 h, read-out: IC50 ± SEM, proliferation inhibition
Experimental: as §1, §4

[7] = system: NCIH358; experiment: Cell proliferation assay (CYQUANT, 7 days), NCIH358; assay type: cell-based; details: Homo sapiens, NCI-H358, 168 h, read-out: IC50 ± SEM, proliferation inhibition
Experimental: as §1, §4

[8] = system: A549; experiment: Cell proliferation assay (CYQUANT, 7 days), A549; assay type: cell-based; details: Homo sapiens, read-out: IC50 ± SEM, proliferation inhibition
Experimental: as §1, §4

[9] = Human hepatocyte stability; assay type: in vitro ADME; details: hepatocytes, 0.5 million cells/mL, 37° C., 4 hours, read-out: CLint HHEP: CLint in human hepatocytes (in vitro)
Experimental: At various time points, samples were taken and analyzed by LC-MS/MS. CLint HHEP was calculated based on loss of parent compound over time using equations discussed in “A novel relay method for determining low-clearance values,” Drug Metab Dispos., 2012; 40(9):1860-5.

[10] = Human plasma protein binding (equilibrium dialysis); assay type: in vitro ADME; details: 6-hour incubation, pH 7.4, read-out: fup: human plasma unbound fraction
Experimental: Frozen plasma in K3EDTA was purchased from BiolVT and Dulbecco's phosphate buffered saline (DPBS) and HCl were purchased from Sigma. Human plasma unbound fraction (fu r) was determined by equilibrium dialysis using an HTD 96 device (HTDialysis, LLC, Gales Ferry, CT) assembled with 12-14k MWCO membranes. Plasma was thawed and adjusted to pH 7.4 with 1 N HCl prior to use. Dialysis chambers were loaded with 150 μL plasma and 150 μL PBS in the donor and receiver chambers, respectively. The dialysis plate was sealed with a gas-permeable membrane and stored in a 37° C. water-jacked incubator maintained at 75% relative humidity and 5% CO2, on a 100 rpm plate shaker. After a 6-hour incubation, samples were matrix-matched and quench by protein precipitation, followed by LC-MS analysis. A set of satellite samples was included to measure stability after a 6-hour incubation. Incubations were conducted with 4 to 12 replicates. The fup was calculated by dividing the analyte-to-internal standard peak area ratio or analyte concentration in the buffer sample by the signal in the donor sample, corrected for any dilution factors.

C[C@@]1(O)CCC[C@H]1n1c(=O)c(CC(F)F)cc2cnc(NC3CCN(S(N)(=O)=O)CC3)nc21 [Compound 1, 4-({6-(2,2-difluoroethyl)-8-[(1R,2R)-2-hydroxy-2-methylcyclopentyl]-7-oxo-7,8-dihydropyrido[2,3-d]pyrimidin-2-yl}amino)piperidine-1-sulfonamide]
IC50 ([1]; MCF7, mean, treated 24 h (overnight)): 0.148 µM | IC50 ([2]; OVCAR-3, OVCAR3, mean, treated 1 h after overnight 1 mM hydroxyurea): 0.0162 µM | IC50 ([3]; 168 h, MCF7 parental, 7 days, mean): 0.0168 ± 0.0067 µM | IC50 ([4]; T47D PalboR, 7 days, mean): 0.0657 ± 0.0088 µM | IC50 ([5]; 168 h, HCC1428 parental, 7 days, mean): 0.0143 ± 0.0044 µM | IC50 ([6]; OVCAR3, 7 days, mean): 0.0114 µM | IC50 ([7]; NCIH358, 7 days, mean): 0.021 ± 0.0022 µM | IC50 ([8]; 168 h, A549, 7 days, mean): 0.121 ± 0.0101 µM | hepatocyte CLint at 1 μM [9]: ~2 µL/min/1e6 cells | fraction unbound at 6 h [10]: 0.174

C[C@@]1(O)CCC[C@H]1n1c(=O)c(C(F)F)cc2cnc(NC3CCN(S(C)(=O)=O)CC3)nc21 [Compound 2, reference compound]
IC50 ([1]; MCF7, 24 h): 0.0706 µM | IC50 ([2]; OVCAR-3, 1 h): 0.0218 µM | IC50 ([3]; MCF7, 168 h): 0.0386 ± 0.0102 µM | IC50 ([4]; T47D): 0.253 ± 0.0551 µM | IC50 ([5]; HCC1428, 168 h): 0.0967 ± 0.0264 µM | IC50 [6]: 0.07 ± 0.0117 µM | IC50 [7]: 0.039 µM | IC50 ([8]; A549, 168 h): 0.189 µM | hepatocyte CLint at 1 μM [9]: ~2 µL/min/1e6 cells | fraction unbound at 6 h [10]: 0.288
